# Source: US20080194616A1, “PYRIDOPYRIMIDINONE COMPOUNDS USEFUL IN TREATING SODIUM CHANNEL-MEDIATED DISEASES OR CONDITIONS” (Xenon Pharmaceuticals Inc., priority 2007, published 2008)
# Counter-ions that a name gives are not always drawn.
# Test system: sodium channel
# Assay: Guanidine Influx Assay (In Vitro Assay)
# Type: cell-based, human or rat
# Details: known cell line that expresses a sodium channel; read-out: IC50 Activity Level
# Excerpt: This example describes an in vitro assay for testing and profiling test agents against human or rat sodium channels stably expressed in cells of either an endogenous or recombinant origin. The assay is also useful for determining the IC-50 of a sodium channel blocking compound. The assay is based on the guanidine flux assay described by Reddy, N. L., et al., J. Med. Chem. (1998), 41(17):3298-302.
# The guanidine influx assay is a radiotracer flux assay used to determine ion flux activity of sodium channels in a high-throughput microplate-based format. The assay uses ^14C-guanidine hydrochloride in combination with various known sodium channel modulators, to assay the potency of test agents. Potency is determined by an IC-50 calculation. Selectivity is determined by comparing potency of the compound for the channel of interest to its potency against other sodium channels (also called ‘selectivity profiling’).
# Each of the test agents is assayed against cells that express the channels of interest. Voltage gated sodium channels are either TTX sensitive or insensitive. This property is useful when evaluating the activities of a channel of interest when it resides in a mixed population with other sodium channels. The following Table 1 summarizes cell lines useful in screening for a certain channel activity in the presence or absence of TTX.
# Cells expressing the channel of interest are grown according to the supplier or in the case of a recombinant cell in the presence of selective growth media such as G418 (Gibco/Invitrogen). The cells are disassociated from the culture dishes with an enzymatic solution (1×) Trypsin/EDTA (Gibco/Invitrogen) and analyzed for density and viability using haemocytometer (Neubauer). Disassociated cells are washed and resuspended in their culture media then plated into Scintiplates (Beckman Coulter Inc.) (approximately 100,000 cells/well) and incubated at 37° C./5% CO2. for 20-24 hours. After an extensive wash with Low sodium HEPES-buffered saline solution (LNHBSS) (150 mM Choline Chloride, […] (Sigma), 1 mM Calcium Chloride, 5 mM Potassium Chloride, 1 mM Magnesium Chloride, 10 mM Glucose) agents diluted with LNHBSS are added to each well. (Varying concentrations of test agent may be used). The activation/radiolabel mixture contains aconitine (Sigma), and ^14C-guanidine hydrochloride (ARC).
# After loading the cells with test agent and activation/radiolabel mixture, the Scintiplates are incubated at ambient temperature. Following the incubation, the Scintplates are extensively washed with LNHBSS supplemented with guanidine (Sigma). The Scintiplates are dried and then counted using a Wallac MicroBeta TriLux (Perkin-Elmer Life Sciences). The ability of the test agent to block sodium channel activity is determined by comparing the amount of ^14C-guanidine present inside the cells expressing the different sodium channels.
# IC-50 value of a test agent for a specific sodium channel may be determined using the above general method. IC-50 may be determined using a 3,8,10,12 or 16 point curve in duplicate or triplicate with a starting concentration of 1, 5 or 10 μM diluted serially with a final concentration reaching the sub-nanomolar, nanomolar and low micromolar ranges. Typically the mid-point concentration of test agent is set at 1 μM, and sequential concentrations of half dilutions greater or smaller are applied (e.g. 0.5 μM; […] and 0.25 μM; 10 μM and 0.125 μM; 20 μM etc.). The IC-50 curve is calculated using the 4 Parameter Logistic Model or Sigmoidal Dose-Response Model formula (fit=(A+((B−A)/(1+((C/x)̂D)))).
row,Compound,IC50
1,"CCCCc1nc2ccccn2c(=O)c1-c1ccc(OC)cc1 [Example 1, 2-butyl-3-(4-methoxyphenyl)-4H-pyrido[1,2-a]pyrimidin-4-one]",≥ 10 µM
2,"CCCCc1nc2ccccn2c(=O)c1-c1ccc(Cl)cc1 [Example 1.8, 2-butyl-3-(4-chlorophenyl)-4H-pyrido[1,2-a]pyrimidin-4-one]",≥ 10 µM
3,"CCCCc1nc2cc(C(F)(F)F)ccn2c(=O)c1-c1ccc(Cl)cc1 [Example 1.21, 2-butyl-3-(4-chlorophenyl)-8-(trifluoromethyl)-4H-pyrido[1,2-a]pyrimidin-4-one]",≥ 10 µM
4,"CCCOc1nc2ccccn2c(=O)c1-c1ccc(Cl)cc1 [Example 1.25, 2-propoxy-3-(4-chlorophenyl)-4H-pyrido[1,2-a]pyrimidin-4-one]",1 to 10 µM
5,"CCCCc1nc2ccccn2c(=O)c1-c1ccc2c(c1)CCN2 [Example 2, 2-butyl-3-(indolin-5-yl)-4H-pyrido[1,2-a]pyrimidin-4-one hydrochloride]",≥ 10 µM
6,"CCc1nc2ccccn2c(=O)c1-c1ccc(N[C@@H]2CCN(C(=O)OC(C)(C)C)C2)cc1 [Example 3.4, (R)-tert-butyl 3-(4-(2-ethyl-4-oxo-4H-pyrido[1,2-a]pyrimidin-3-yl)phenylamino)pyrrolidine-1-carboxylate]",≥ 10 µM
7,"CCCCc1nc2ccccn2c(=O)c1-c1ccc(N2CCOCC2)cc1 [Example 3.25, 2-butyl-3-(4-morpholin-4-ylphenyl)-4H-pyrido[1,2-a]pyrimidin-4-one]",≥ 10 µM
8,"CCCCc1nc2ccccn2c(=O)c1-c1ccc(NC2CCOCC2)cc1 [Example 3.26, 2-butyl-3-[4-(tetrahydro-2H-pyran-4-ylamino)phenyl]-4H-pyrido[1,2-a]pyrimidin-4-one hydrochloride]",≥ 10 µM
9,"CCCCc1nc2ccccn2c(=O)c1-c1ccc(NC[C@H]2CCCO2)cc1 [Example 3.27, (R)-2-butyl-3-(4-{[tetrahydrofuran-2-ylmethyl]amino}phenyl)-4H-pyrido[1,2-a]pyrimidin-4-one hydrochloride]",≥ 10 µM
10,"CCCCc1nc2ccccn2c(=O)c1-c1ccc(NC[C@@H]2CCCO2)cc1 [Example 3.28, (S)-2-butyl-3-(4-{[tetrahydrofuran-2-ylmethyl]amino}phenyl)-4H-pyrido[1,2-a]pyrimidin-4-one hydrochloride]",≥ 10 µM
11,"CCCCc1nc2ccccn2c(=O)c1-c1ccc(N[C@@H]2CCOC2)cc1 [Example 3.29, (R)-2-butyl-3-{4-[tetrahydrofuran-3-ylamino]phenyl}-4H-pyrido[1,2-a]pyrimidin-4-one hydrochloride]",≥ 10 µM
12,"CCCCc1nc2ccccn2c(=O)c1-c1ccc(NC2CCCNC2)cc1 (stereo not shown) [Example 6, 2-butyl-3-[4-(piperidin-3-ylamino)phenyl]-4H-pyrido[1,2-a]pyrimidin-4-one hydrochloride]",≥ 10 µM
13,"CCCCc1nc2ccccn2c(=O)c1-c1ccc(NC2CCNC2)cc1 (stereo not shown) [Example 7, 2-butyl-3-(4-(pyrrolidin-3-ylamino)phenyl)-4H-pyrido[1,2-a]pyrimidin-4-one hydrochloride]",≥ 10 µM

# Results, then the compound that gave them:
row,IC50,Compound
1,≥ 10 µM,"CCCCc1nc2ccccn2c(=O)c1-c1ccc(NC2CCNCC2)cc1 [Example 6.1, 2-butyl-3-[4-(piperidin-4-ylamino)phenyl]-4H-pyrido[1,2-a]pyrimidin-4-one hydrochloride]"
2,≥ 10 µM,"CCCCc1nc2ccccn2c(=O)c1-c1ccc(N[C@@H]2CCCNC2)cc1 [Example 6.2, (R)-2-butyl-3-{4-[piperidin-3-ylamino]phenyl}-4H-pyrido[1,2-a]pyrimidin-4-one hydrochloride]"
3,≥ 10 µM,"Cc1nc2ccccn2c(=O)c1-c1ccc(N[C@@H]2CCNC2)cc1 [Example 6.3, (R)-2-methyl-3-(4-(pyrrolidin-3-ylamino)phenyl)-4H-pyrido[1,2-a]pyrimidin-4-one hydrochloride]"
4,≥ 10 µM,"CCc1nc2ccccn2c(=O)c1-c1ccc(N[C@@H]2CCNC2)cc1 [Example 6.4, (R)-2-ethyl-3-(4-(pyrrolidin-3-ylamino)phenyl)-4H-pyrido[1,2-a]pyrimidin-4-one hydrochloride]"
5,≥ 10 µM,"CCCc1nc2ccccn2c(=O)c1-c1ccc(N[C@@H]2CCNC2)cc1 [Example 6.5, (R)-2-propyl-3-(4-(pyrrolidin-3-ylamino)phenyl)-4H-pyrido[1,2-α]pyrimidin-4-one hydrochloride]"
6,≥ 10 µM,"CCCCc1nc2ccc(C)cn2c(=O)c1-c1ccc(N[C@@H]2CCNC2)cc1 [Example 6.6, (R)-2-butyl-7-methyl-3-{4-[pyrrolidin-3-ylamino]phenyl}-4H-pyrido[1,2-a]pyrimidin-4-one hydrochloride]"
7,≥ 10 µM,"CCCCc1nc2ccc(F)cn2c(=O)c1-c1ccc(N[C@@H]2CCNC2)cc1 [Example 6.7, (R)-2-butyl-7-fluoro-3-{4-[pyrrolidin-3-ylamino]phenyl}-4H-pyrido[1,2-a]pyrimidin-4-one hydrochloride]"
8,≥ 10 µM,"CCCCc1nc2cc(C(F)(F)F)ccn2c(=O)c1-c1ccc(N[C@@H]2CCNC2)cc1 [Example 6.8, (R)-2-butyl-3-{4-[pyrrolidin-3-ylamino]phenyl}-8-(trifluoromethyl)-4H-pyrido[1,2-a]pyrimidin-4-one hydrochloride]"
9,≥ 10 µM,"CCCCc1nc2c3ccccc3ccn2c(=O)c1-c1ccc(N[C@@H]2CCNC2)cc1 [Example 6.9, (R)-2-butyl-3-{4-[pyrrolidin-3-ylamino]phenyl}-4H-pyrimido[2,1-a]isoquinolin-4-one hydrochloride]"

# Test system: not given
# Assay: not given
# Details: not given
row,melting point,Compound
1,132 to 135 °C,"CCCCc1nc2ccccn2c(=O)c1-c1ccc2[nH]ccc2c1 [Example 1.30, 2-butyl-3-(1H-indol-5-yl)-4H-pyrido[1,2-a]pyrimidin-4-one]"
2,116 to 118 °C,"CCCCc1nc2ccccn2c(=O)c1-c1ccc(NC2CCN(C(=O)OC(C)(C)C)C2)cc1 (stereo not shown) [Example 3.7, tert-butyl 3-{[4-(2-butyl-4-oxo-4H-pyrido[1,2-a]pyrimidin-3-yl)phenyl]amino}pyrrolidine-1-carboxylate]"
3,95 to 96 °C,"CCCCc1nc2ccccn2c(=O)c1-c1ccc(N[C@H]2CCN(C(=O)OC(C)(C)C)C2)cc1 [Example 3.8, (S)-tert-butyl 3-(4-(2-butyl-4-oxo-4H-pyrido[1,2-a]pyrimidin-3-yl)phenylamino)pyrrolidine-1-carboxylate]"
4,98 to 99 °C,"CCCCc1nc2ccccn2c(=O)c1-c1ccc(N[C@@H]2CCN(C(=O)OC(C)(C)C)C2)cc1 [Example 3.9, (R)-tert-butyl 3-(4-(2-butyl-4-oxo-4H-pyrido[1,2-a]pyrimidin-3-yl)phenylamino)pyrrolidine-1-carboxylate]"
5,208 to 211 °C,"CC(C)Nc1nc2ccccn2c(=O)c1-c1ccc(N[C@@H]2CCN(C(=O)OC(C)(C)C)C2)cc1 [Example 3.23, (R)-tert-butyl 3-[(4-{2-[(1-methylethyl)amino]-4-oxo-4H-pyrido[1,2-a]pyrimidin-3-yl}phenyl)amino]pyrrolidine-1-carboxylate]"
6,141 to 143 °C,"CCCCc1nc2ccccn2c(=O)c1-c1ccc(N[C@@H]2CCN(C)C2)cc1 [Example 10, (R)-2-butyl-3-(4-{[1-methylpyrrolidin-3-yl]amino}phenyl)-4H-pyrido[1,2-a]pyrimidin-4-one]"
